These results are taken from ChEMBL document CHEMBL1148864, “Design of LFA-1 antagonists based on a 2,3-dihydro-1H-pyrrolizin-5(7aH)-one scaffold” (Bioorg Med Chem Lett, 2007).

Assay [1] is filed under the species Homo sapiens. The settings on record: 10 uM.
Assay [2] is filed under the species Homo sapiens. The conditions noted are these: 1 uM.

What is called inhibition is the relative decrease from the control value, in per cent. Low readings indicate a response near the control, high ones a response far below the control. For `O=C1C(c2cc(Cl)cc(Cl)c2)=C(c2cc[nH]n2)[C@]2(Cc3ccc(Br)cc3)CCCN12`, in the assay filed under Homo sapiens [1], the inhibition was found to be 30%.
For `N#Cc1ccc(C[C@@]23CCCN2C(=O)C(c2cc(Cl)cc(Cl)c2)=C3O)cc1`, in the assay listed under Homo sapiens [2], the inhibition was found to be 27%.
